Assay results taken from ChEMBL document CHEMBL1139989, “Aminosuberoyl hydroxamic acids (ASHAs): a potent new class of HDAC inhibitors” (Bioorg Med Chem Lett, 2007).
pIC50: −log10 of the molar value.

Columns and labels:
[1] = Antiproliferative activity against mouse SC9 cells by MTS assay; assay type: functional, cell-based
Histone deacetylase 1 = Histone deacetylase 1 (Homo sapiens, UniProt Q13547); assay: Inhibition of human HDAC 1
HCT-116 = assay: Antitumor activity against human HCT116 cells; assay type: functional
Mus musculus = species on record: Mus musculus; assay: Decrease in body weight in nude mouse; assay type: functional; set-up: scale not given: the % may be the effect or the level left

Histone deacetylase 1, sequence (Q13547 whole entry): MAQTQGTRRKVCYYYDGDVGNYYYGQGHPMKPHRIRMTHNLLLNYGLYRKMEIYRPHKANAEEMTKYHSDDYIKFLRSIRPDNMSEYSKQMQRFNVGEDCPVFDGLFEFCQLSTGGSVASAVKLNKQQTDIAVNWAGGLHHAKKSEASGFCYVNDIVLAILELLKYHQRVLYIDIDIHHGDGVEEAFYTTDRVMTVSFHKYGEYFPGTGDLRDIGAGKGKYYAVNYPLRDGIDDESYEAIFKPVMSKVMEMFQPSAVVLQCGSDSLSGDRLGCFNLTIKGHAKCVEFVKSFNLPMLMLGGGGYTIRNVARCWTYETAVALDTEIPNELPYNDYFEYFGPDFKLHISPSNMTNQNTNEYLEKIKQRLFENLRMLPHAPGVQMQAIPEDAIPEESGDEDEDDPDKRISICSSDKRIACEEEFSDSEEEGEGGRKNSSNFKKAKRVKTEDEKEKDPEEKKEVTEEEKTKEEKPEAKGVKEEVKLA

Compound | pIC50 [1] | pIC50 (Histone deacetylase 1) | TGI (HCT-116) | Activity (Mus musculus) [%]
O=C(CCCCC[C@H](NC(=O)c1ccc2ccccc2n1)C(=O)Nc1cccc2cccnc12)NO | 6.78 | – | – | –
O=C(CCCCC[C@H](NC(=O)OCc1ccccc1)C(=O)NCc1ccccc1)NO | 6.39 | 7.32 | – | –
O=C(CCCCC[C@H](NC(=O)OCc1ccccc1)C(=O)Nc1cccc2cccnc12)NO | 7.41 | 7.84 | – | –
O=C(CCCCC[C@H](NC(=O)c1ccccn1)C(=O)Nc1ccc2ncccc2c1)NO | 6.12 | 8.89 | – | –
O=C(CCCCC[C@H](NC(=O)c1ccccc1)C(=O)Nc1cccc2cccnc12)NO | 7.37 | 8.03 | >=50% | <20
O=C(CCCCC[C@H](NC(=O)c1ccccc1)C(=O)NCc1ccccc1)NO | 5.98 | 7.03 | – | –
O=C(CCCCC[C@H](NC(=O)OCc1ccccc1)C(=O)Nc1ccc2ncccc2c1)NO | 6.96 | 8.11 | – | –
O=C(CCCCC[C@H](NC(=O)c1ccc2ccccc2n1)C(=O)NCc1ccccc1)NO | 6.43 | 7.29 | – | –
O=C(CCCCC[C@H](NC(=O)c1ccccc1)C(=O)Nc1ccc2ncccc2c1)NO | 7.05 | 8.46 | – | –
O=C(CCCCC[C@H](NC(=O)c1ccccn1)C(=O)Nc1cccc2cccnc12)NO | 6.44 | 8.40 | – | –
O=C(CCCCC[C@H](NC(=O)c1ccc2ccccc2n1)C(=O)Nc1ccccc1)NO | 7.48 | 8.00 | – | –
O=C(CCCCC[C@H](NC(=O)c1ccccn1)C(=O)NCc1ccccc1)NO | 5.47 | 6.92 | – | –
O=C(CCCCC[C@H](NC(=O)c1ccccc1)C(=O)Nc1ccccc1)NO | 7.14 | 7.92 | – | –
O=C(CCCCC[C@H](NC(=O)c1ccccn1)C(=O)Nc1ccccc1)NO | 6.60 | 7.95 | >=50% | <20
O=C(CCCCC[C@H](NC(=O)c1ccc2ccccc2n1)C(=O)Nc1ccc2ncccc2c1)NO | 6.97 | – | – | –
O=C(CCCCC[C@H](NC(=O)OCc1ccccc1)C(=O)Nc1ccccc1)NO | 6.99 | 7.74 | – | –
